In one assay the test system is Various marine bacteria. The assay can be described thus: Lag phase shortening in various marine bacteria. In kind it is cell-based. The note with it: minute amounts of compound. Here is the method: The bacterial strain Phaeobacter inhibens DSM 17395 was purchased from the German collection of microorganisms and cell cultures (DSMZ, Braunschweig, Germany) and stored at −80° C. with 20% glycerol. Routine cultivation of P. inhibens was conducted at 30° C. in artificial seawater medium (ASW) based on Goyet and Poisson (1989). The ASW medium contained mineral salts (NaCl, 409.41 mM; Na2SO4, 28.22 mM; KCl, 9.08 mM; KBr, 0.82 mM; NaF, 0.07 mM; Na2CO3, 0.20 mM; NaHCO3, 2 mM; MgCl2, 50.66 mM; SrCl2, 0.09 mM), L1 vitamins (thiamine HCl, 100 μg/L; biotin, 0.5 μg/L; vitamin B12, […]), L1 trace elements (Na2EDTA·2H2O, 4.36 mg/L; FeCl3·6H2O, 3.15 mg/L; MnCl2·4H2O, 178.1 μg/L; ZnSO4·7H2O, 23.0 μg/L; CoCl2·6H2O, 11.9 μg/L; CuSO4·5H2O, 2.5 μg/L; Na2MoO4·2H2O, 19.9 μg/L; H2SeO3, 1.29 μg/L; NiSO4·6H2O, 2.63 μg/L; Na3 VO4, 1.84 μg/L; K2CrO4, 1.94 μg/L), and L1 nutrients (NaNO3, 882 μM; NaH2PO4, 36.22 μM). ASW was adjusted to pH 8 using HCl. […] A 96-well Tecan Infinite M Plex plate reader was used for high-resolution monitoring of bacterial growth dynamics at 30° C. […] The growth of bacteria in co-culture with algae was monitored by counting colony forming units (CFU) on ½ YTSS agar plates. The growth of algae was monitored with a CellStream flow cytometer (Merck, Darmstadt, Germany). […]

Assay [1] deals with Bacillus subtilis strain 168. The assay can be described thus: Lag phase shortening in B. subtilis. The class given is cell-based. The note with it: 2 μM compound. Here is the method:
The bacterial strain Phaeobacter inhibens DSM 17395 was purchased from the German collection of microorganisms and cell cultures (DSMZ, Braunschweig, Germany) and stored at −80° C. with 20% glycerol. Routine cultivation of P. inhibens was conducted at 30° C. in artificial seawater medium (ASW) based on Goyet and Poisson (1989). The ASW medium contained mineral salts (NaCl, 409.41 mM; Na2SO4, 28.22 mM; KCl, 9.08 mM; KBr, 0.82 mM; NaF, 0.07 mM; Na2CO3, 0.20 mM; NaHCO3, 2 mM; MgCl2, 50.66 mM; SrCl2, 0.09 mM), L1 vitamins (thiamine HCl, 100 μg/L; biotin, 0.5 μg/L; vitamin B12, […]), L1 trace elements (Na2EDTA·2H2O, 4.36 mg/L; FeCl3·6H2O, 3.15 mg/L; MnCl2·4H2O, 178.1 μg/L; ZnSO4·7H2O, 23.0 μg/L; CoCl2·6H2O, 11.9 μg/L; CuSO4·5H2O, 2.5 μg/L; Na2MoO4·2H2O, 19.9 μg/L; H2SeO3, 1.29 μg/L; NiSO4·6H2O, 2.63 μg/L; Na3 VO4, 1.84 μg/L; K2CrO4, 1.94 μg/L), and L1 nutrients (NaNO3, 882 μM; NaH2PO4, 36.22 μM). ASW was adjusted to pH 8 using HCl. If not otherwise stated, the medium was further supplemented with a source of carbon (glucose, 1 mM), nitrogen (NH4Cl, 5 mM), and sulfur (Na2SO4, 33 mM), referred to as ASW+CNS. Methylated effector compounds (e.g., donors) were administered at 1 or 2 μM in routine assays, or in higher concentrations as stated. The bacterium Bacillus subtilis strain 168 was cultivated in M9 Medium (Na2HPO4, 6 g/L; KH2PO4, 3 g/L; NaCl, 0.5 g/L; NH4CL, 1 g/L; CaCl2), 100 µM; MgSO4, 1 mM; Thiamine, 5 mg/L; EDTA, 50 mg/L; FcCl3, 4.98 mg/L; ZnCl2, 0.84 mg/L; CuCl2·2H2O, 0.13 mg/L; CoCl2·6H2O, 0.1 mg/L; H3BO3, 0.1 mg/L; MnCl2·4H2O, 0.016 mg/L; pH 7.1) with 20 mM glucose. Other bacterial strains tested for lag phase shortening were isolated from the marine environment (Despotović et al., 2021), and cultivated in ASW+CNS. A 96-well Tecan Infinite M Plex plate reader was used for high-resolution monitoring of bacterial growth dynamics at 30° C. […] The growth of bacteria in co-culture with algae was monitored by counting colony forming units (CFU) on ½ YTSS agar plates. The growth of algae was monitored with a CellStream flow cytometer (Merck, Darmstadt, Germany). […]

Take `C[S+](C)CCC(=O)[O-]` [DMSP, dimethylsulfoniopropionate]: the lag phase shortening result is “marked lag phase shortening” with Various marine bacteria and “induction of the lag phase shortening” in assay [1].

The values are drawn from patent US20260015574A1, “METHODS FOR SHORTENING LAG PHASE DURATION IN MICROORGANISMS” (YEDA RESEARCH AND DEVELOPMENT CO. LTD., priority 2022, published 2026).
